Values joined by “and” are separate entries in the source; they are usually repeats but may differ in a detail not shown here. Equal values may be shown once. Read-outs that look alike come from different tables or passages of the source.
Experiments:
Test in all cases: Cytotoxicity, MTT assay
Format in all cases: cell-based, human
Design in all cases: key to cell viability, mean: % viability = OD / OD of untreated control
[1] = system: HEK-293T cells
Method: (§1) HeLa cells were seeded on flat-bottomed 96-well plates (5000 cells per well) and incubated at 37 °C overnight. Varying concentrations of P-CyPt, Pt^IVNPs or CDDP (0, 1, 2, 5, 10, 20, 30, 50, 100, and 200 μM) in DMEM medium (100 μL) were added. Cells were either incubated for 48 h, or firstly incubated with these three compounds for 2 h, washed with PBS and then incubated with refreshed blank DMEM medium for another 48 h. Then, 3-(4,5)-dimethylthiahiazo (-z-y1)−3,5-di-phenytetrazoliumromide (MTT, 50 μL, 1 mg /mL in PBS) was added into each well. The cells were kept at 37 °C for 4 h, and the solution in each well was carefully removed, followed by addition of dimethyl sulfoxide (DMSO, 150 μL). The absorbance (OD) at 490 nm in each well was acquired on the microplate reader (Tcan). The absorbance of non-treated blank cells (OD control) was used as the control. The percentage of cell viability was calculated by dividing OD to the OD control. […]
(§2) Supplementary Table 4. The IC50 (μM) value of different Pt drugs toward HeLa, HepG2 and HEK-293T cells.a
(§3) Compounds Condition IC50 (μM) HeLa HepG2 HEK-293T […]
(§4) a The IC50 values were measured by the MTT assay. Values denote mean ± s.d. (n = 3 independent experiments). b Cells were incubated with varying concentrations of CDDP, P-CyPt or PtIVNPs for […]
(§5) c Cells were incubated with varying concentrations of CDDP, P-CyPt or PtIVNPs for 2 h, and the mediums were removed, washed with PBS. Blank culture mediums were added, and the cells were kept incubation for another 48 h.

[2] = system: HeLa cells
Method: as §1, §2, §3, §4, §5

[3] = system: HepG2 cells
Method: as §1, §2, §3, §4, §5

SMILES: [NH2][Pt]([NH2])([Cl])[Cl] [CDDP, cisplatin]
- IC50 ([1]; HEK-293T, 2+48 h, individual samples, read-out: IC50-2+48h): > 200 µM
- IC50 ([1]; HEK-293T, 2+48 h, mean of 3 samples, read-out: IC50-2+48h): > 200 µM
- cell viability, mean ([1]; Supplementary Fig. 23 (c), concentration 1 μM): 95.9542
- cell viability, mean ([1]; Supplementary Fig. 23 (c), concentration 2 μM): 90.0454
- cell viability, mean ([1]; Supplementary Fig. 23 (c), concentration 5 μM): 78.4742
- cell viability, mean ([1]; Supplementary Fig. 23 (c), concentration 10 μM): 63.7251
- cell viability, mean ([1]; Supplementary Fig. 23 (c), concentration 20 μM): 47.669
- cell viability, mean ([1]; Supplementary Fig. 23 (c), concentration 30 μM): 34.929
- cell viability, mean ([1]; Supplementary Fig. 23 (c), concentration 50 μM): 24.7568
- cell viability, mean ([1]; Supplementary Fig. 23 (c), concentration 100 μM): 14.7932
- cell viability, mean ([1]; Supplementary Fig. 23 (c), concentration 200 μM): 8.255
- IC50 ([1]; Supplementary Fig. 23 (c), read-out: IC50): 17.4 µM
- cell viability, mean ([1]; Supplementary Fig. 24 (c), concentration 1 μM): 98.6071
- cell viability, mean ([1]; Supplementary Fig. 24 (c), concentration 2 μM): 97.4354
- cell viability, mean ([1]; Supplementary Fig. 24 (c), concentration 5 μM): 96.6584
- cell viability, mean ([1]; Supplementary Fig. 24 (c), concentration 10 μM): 94.4248
- cell viability, mean ([1]; Supplementary Fig. 24 (c), concentration 20 μM): 94.1486
- cell viability, mean ([1]; Supplementary Fig. 24 (c), concentration 30 μM): 93.57
- cell viability, mean ([1]; Supplementary Fig. 24 (c), concentration 50 μM): 92.6006
- cell viability, mean ([1]; Supplementary Fig. 24 (c), concentration 100 μM): 91.2991
- cell viability, mean ([1]; Supplementary Fig. 24 (c), concentration 200 μM): 85.8671
- IC50 ([1]; Supplementary Fig. 24 (c), read-out: IC50): > 200 µM
- IC50 ([1]; incubated 2 h, then blank medium 48 h, MTT, read-out: IC50 HEK-293T): > 200 µM
- IC50 ([1]; incubated 48 h, MTT, read-out: IC50 HEK-293T): 17.4 ± 1.05 µM
- cell viability, mean ([2]; Supplementary Fig. 23 (a), concentration 1 μM): 94.4173
- cell viability, mean ([2]; Supplementary Fig. 23 (a), concentration 2 μM): 90.2597
- cell viability, mean ([2]; Supplementary Fig. 23 (a), concentration 5 μM): 78.7193
- cell viability, mean ([2]; Supplementary Fig. 23 (a), concentration 10 μM): 62.7353
- cell viability, mean ([2]; Supplementary Fig. 23 (a), concentration 20 μM): 41.6693
- cell viability, mean ([2]; Supplementary Fig. 23 (a), concentration 30 μM): 27.22
- cell viability, mean ([2]; Supplementary Fig. 23 (a), concentration 50 μM): 19.0133
- cell viability, mean ([2]; Supplementary Fig. 23 (a), concentration 100 μM): 10.56
- cell viability, mean ([2]; Supplementary Fig. 23 (a), concentration 200 μM): 6.51
- IC50 ([2]; Supplementary Fig. 23 (a), read-out: IC50): 14.5 µM
- cell viability, mean ([2]; Supplementary Fig. 24 (a), concentration 1 μM): 98.8285
- cell viability, mean ([2]; Supplementary Fig. 24 (a), concentration 2 μM): 97.2876
- cell viability, mean ([2]; Supplementary Fig. 24 (a), concentration 5 μM): 95.6072
- cell viability, mean ([2]; Supplementary Fig. 24 (a), concentration 10 μM): 92.7687
- cell viability, mean ([2]; Supplementary Fig. 24 (a), concentration 20 μM): 89.3445
- cell viability, mean ([2]; Supplementary Fig. 24 (a), concentration 30 μM): 83.6169
- cell viability, mean ([2]; Supplementary Fig. 24 (a), concentration 50 μM): 75.0853
- cell viability, mean ([2]; Supplementary Fig. 24 (a), concentration 100 μM): 65.2268
- cell viability, mean ([2]; Supplementary Fig. 24 (a), concentration 200 μM): 49.73
- IC50 ([2]; Supplementary Fig. 24 (a), read-out: IC50): 178 µM
- IC50 ([2]; incubated 2 h, then blank medium 48 h, MTT, read-out: IC50 HeLa): 178 µM and > 150 µM
- IC50 ([2]; incubated 48 h, MTT, read-out: IC50 HeLa): 14.5 ± 1.6 µM
- IC50 ([3]; HepG-2, 2+48 h, individual samples, read-out: IC50-2+48h): > 200 µM
- IC50 ([3]; HepG-2, 2+48 h, mean of 3 samples, read-out: IC50-2+48h): > 200 µM
- cell viability, mean ([3]; Supplementary Fig. 23 (b), concentration 1 μM): 95.3204
- cell viability, mean ([3]; Supplementary Fig. 23 (b), concentration 2 μM): 89.9797
- cell viability, mean ([3]; Supplementary Fig. 23 (b), concentration 5 μM): 77.7747
- cell viability, mean ([3]; Supplementary Fig. 23 (b), concentration 10 μM): 61.9896
- cell viability, mean ([3]; Supplementary Fig. 23 (b), concentration 20 μM): 45.1643
- cell viability, mean ([3]; Supplementary Fig. 23 (b), concentration 30 μM): 34.2775
- cell viability, mean ([3]; Supplementary Fig. 23 (b), concentration 50 μM): 23.521
- cell viability, mean ([3]; Supplementary Fig. 23 (b), concentration 100 μM): 12.914
- cell viability, mean ([3]; Supplementary Fig. 23 (b), concentration 200 μM): 8.323
- IC50 ([3]; Supplementary Fig. 23 (b), read-out: IC50): 16.3 µM
- cell viability, mean ([3]; Supplementary Fig. 24 (b), concentration 1 μM): 97.7401
- cell viability, mean ([3]; Supplementary Fig. 24 (b), concentration 2 μM): 96.3386
- cell viability, mean ([3]; Supplementary Fig. 24 (b), concentration 5 μM): 94.9498
- cell viability, mean ([3]; Supplementary Fig. 24 (b), concentration 10 μM): 92.0343
- cell viability, mean ([3]; Supplementary Fig. 24 (b), concentration 20 μM): 89.3937
- cell viability, mean ([3]; Supplementary Fig. 24 (b), concentration 30 μM): 84.3715
- cell viability, mean ([3]; Supplementary Fig. 24 (b), concentration 50 μM): 79.6906
- cell viability, mean ([3]; Supplementary Fig. 24 (b), concentration 100 μM): 74.3564
- cell viability, mean ([3]; Supplementary Fig. 24 (b), concentration 200 μM): 60.8897
- IC50 ([3]; Supplementary Fig. 24 (b), read-out: IC50): > 200 µM
- IC50 ([3]; incubated 2 h, then blank medium 48 h, MTT, read-out: IC50 HepG2): > 200 µM
- IC50 ([3]; incubated 48 h, MTT, read-out: IC50 HepG2): 16.3 ± 1.69 µM
